The test system of one data set is HIV-IIIb. Briefly: Test A: Antiviral assay in MT4 cells. Conditions: MT-4 cells infected with HIV-IIIb, 5 days, CellTiter-Glo; for % inhibition at 2 μM: percent inhibition of virus-induced cell killing, from dose response curve at 2 uM drug; for inhibition at 2 µM: Human immunodeficiency virus 1, IIIB, MT4, 120 h, read-out: % inhibition at 2 μM, percent inhibition of virus-induced cell killing, from dose response curve at 2 uM drug. In kind it is cell-based, HIV-1. For orientation: ATP-based viability assays read luminescence as a measure of living cells.

The next data set can be described thus: in vitro. The protocol:
For the antiviral assay, 40 μL of 1× test concentration of 3-fold serially diluted compound in culture medium with 10% FBS was added to each well of a 384-well plate (10 concentrations) in quadruplicate. MT-4 cells were next mixed with HIV-IIIb at an m.o.i of 0.003 for 1 hour, after which time 35 μL of virus/cell mixture (2000 cells) was immediately added to each well containing 40 μL of diluted compound. The plates were then incubated at 37° C. for 5 days. After 5 days of incubation, 25 μl of 2× concentrated CellTiter-Glo™ Reagent (catalog #G7571, Promega Biosciences, Inc., Madison, Wis.) was added to each well containing MT-4 cells. Cell lysis was carried out by incubating at room temperature for 10 min and then chemiluminescence was read.
Test B: Cytotoxicity Assay
Compound cytotoxicity and the corresponding CC50 values was determined using the same protocol as described in the antiviral assay (Test A) except that uninfected cells were used.

The mark [1] stands for this setting: human, uninfected MT-4 cells, CC50 (nM), same protocol as Test A, CellTiter-Glo.

Data on 28 compounds can be found in patent US9540343B2 (Gilead Sciences, Inc., priority 2011, dated 2017).

Broadly, the % inhibition is the drop in the measured response relative to a control, in per cent. Broadly, the CC50 is the concentration that lowers cell viability or growth by half. By inhibition is commonly meant the relative decrease from the control value, in per cent.

On to `O=C(N[C@@H](Cc1cc(F)cc(F)c1)c1ncccc1-c1ccc(Cl)cc1)C(c1c[nH]c2ccc(F)cc12)C(F)(F)F` (single isomer, unassigned) [Example 36F], for which the “% inhibition at 2 μM” value with HIV-IIIb was found to be 15%. The compound further displayed a CC50 at 5 days in “in vitro” (setting [1]) of 7200 nM.
In the case of `NC(=O)c1cc(-c2cccnc2[C@H](Cc2cc(F)cc(F)c2)NC(=O)Cn2nc(C(F)F)c3c2CC2CC32)ccc1F` (single isomer, unassigned) [Example 248], the inhibition at 2 µM in the data set with HIV-IIIb was found to be 88%. It took 26500 nM to reach half-maximal cytotoxicity in the data set “in vitro” (setting [1]) (CC50 at 5 days).
As to `O=C(Cn1nc(C(F)F)c2c1C1CC1CC2)NC(Cc1cc(F)cc(F)c1)c1ncncc1-c1cnc2[nH]ccc2c1` (single isomer, unassigned) [Example 329], the “% inhibition at 2 μM” value in the data set with HIV-IIIb turned out to be 99%. The compound further returned a CC50 at 5 days in the data set “in vitro” (setting [1]) of 14700 nM.
Regarding `CC(C)(CC(=O)N[C@@H](Cc1cc(F)cc(F)c1)c1ncccc1-c1ccc(F)c(C(N)=O)c1)n1ccc(C(F)(F)F)n1` (single isomer, unassigned) [Example 478E], the inhibition at 2 µM in the data set on HIV-IIIb came to 0%. The midpoint of cytotoxicity in the data set “in vitro” (human, CC50 (nM), uninfected MT-4 cells, same protocol as Test A, CellTiter-Glo), the CC50 at 5 days, lay at 21500 nM.
Take `CC(C)C(C(=O)N[C@@H](Cc1cc(F)cc(F)c1)c1ncccc1-c1ccc(F)c(C(N)=O)c1)n1ccc(C(F)(F)F)n1` (single isomer, unassigned) [Example 479]: the inhibition at 2 µM with HIV-IIIb was 2%. In addition, in “in vitro” (setting [1]), the CC50 at 5 days came out at 26400 nM.
As to `CCC(C(=O)N[C@@H](Cc1cc(F)cc(F)c1)c1ncccc1-c1ccc(F)c(C(N)=O)c1)n1nc(C(F)F)cc1C(F)F` (single isomer, unassigned) [Example 483D], the inhibition at 2 µM in the data set with HIV-IIIb was 19%. Also, the CC50 at 5 days in “in vitro” (setting [1]) turned out to be 26200 nM.
In the case of `CCCCC(C(=O)N[C@@H](Cc1cc(F)cc(F)c1)c1ncccc1-c1ccc(F)c(C(N)=O)c1)n1ccc(C(F)(F)F)n1` (single isomer, unassigned) [Example 487C], in the data set on HIV-IIIb, the inhibition at 2 µM is 10%. The CC50 at 5 days in the data set “in vitro” (setting [1]) worked out at 9710 nM.
In the case of `CN(C)C(C(=O)N[C@@H](Cc1cc(F)cc(F)c1)c1ncccc1-c1ccc(F)c(C(N)=O)c1)c1ccc(F)cc1` (single isomer, unassigned) [Example 503], the “% inhibition at 2 μM” value with HIV-IIIb was determined as 3%. The compound further displayed a CC50 at 5 days in the data set “in vitro” (setting [1]) of 40400 nM.
Taken in the same sequence, the figures for `NC(=O)c1cc(-c2cccnc2[C@H](Cc2cc(F)cc(F)c2)NC(=O)C(c2ccccc2)C2CCCC2)ccc1F` (single isomer, unassigned) [Example 515] were 0% and 9460 nM.
Regarding `Cc1cc2ncn(C(CC(F)(F)F)C(=O)N[C@@H](Cc3cc(F)cc(F)c3)c3ncccc3-c3ccc(F)c(C(N)=O)c3)c2cc1C` (single isomer, unassigned) [Example 540E], the “% inhibition at 2 μM” value in the data set on HIV-IIIb is −4%. In the data set “in vitro” (setting [1]), this compound gave a CC50 at 5 days greater than 53200 nM.
Taken in the same sequence, the figures for `CCC(C(=O)N[C@@H](Cc1cc(F)cc(F)c1)c1ncccc1-c1ccc(F)c(C(N)=O)c1)n1ccnc1C(C)C` (single isomer, unassigned) [Example 558B] were 3% and greater than 53200 nM.
Taken in the same sequence, the figures for `CCC(C(=O)N[C@@H](Cc1cc(F)cc(F)c1)c1ncccc1-c1ccc(F)c(C(N)=O)c1)n1cc(C(F)(F)F)cn1` (single isomer, unassigned) [Example 565] were 0% and 37600 nM.
As for `CCC(C(=O)N[C@@H](Cc1cc(F)cc(F)c1)c1ncccc1-c1ccc(F)c(C(N)=O)c1)n1ccc(C(F)(F)F)n1` (single isomer, unassigned) [Example 572B], the inhibition at 2 µM in the data set with HIV-IIIb worked out at 11%. In the data set “in vitro” (setting [1]), this compound gave a CC50 at 5 days of 36700 nM.
In the same order, the values of `CC(C)CC(C(=O)N[C@@H](Cc1cc(F)cc(F)c1)c1ncccc1-c1ccc(F)c(C(N)=O)c1)n1ccc(C(F)(F)F)n1` (single isomer, unassigned) [Example 581D] are 6% and 10600 nM.
In the same order, the values of `O=C(Cc1c[nH]c2ccc(O)nc12)N[C@@H](Cc1cc(F)cc(F)c1)c1nccnc1-c1ccc(Cl)cc1` (stereo in doubt) [Example 476, N-(1-(3-(4-chlorophenyl)pyrazin-2-yl)-2-(3,5-difluorophenyl)ethyl)-2-(5-hydroxy-1H-pyrrolo[3,2-b]pyridin-3-yl)acetamide] are 30% and 53200 nM.
Take `Cc1ccccc1-c1cccnc1C(Cc1ccccc1)NC(=O)Cn1nc(C(F)(F)F)c2c1CCCC2` (stereo not drawn) [Example 2, N-(2-phenyl-1-(3-(o-tolyl)pyridin-2-yl)ethyl)-2-(3-(trifluoromethyl)-4,5,6,7-tetrahydro-1H-indazol-1-yl)acetamide]: the inhibition at 2 µM in the data set on HIV-IIIb is 29%. Further, the CC50 at 5 days in “in vitro” (setting [1]) is 14000 nM.
Taken in the same sequence, the figures for `Cc1ccccc1-c1cccnc1C(Cc1cc(F)cc(F)c1)NC(=O)Cc1c[nH]c2ccc(O)cc12` (stereo not drawn) [Example 3, N-(2-(3,5-difluorophenyl)-1-(3-o-tolylpyridin-2-yl)ethyl)-2-(5-hydroxy-1H-indol-3-yl)acetamide] were 40% and 21900 nM.
As to `Cc1ccccc1-c1cccnc1C(Cc1cc(F)cc(F)c1)NC(=O)Cn1nc(C(F)(F)F)c2c1CCCC2` (stereo not drawn) [Example 4, N-(2-(3,5-difluorophenyl)-1-(3-o-tolylpyridin-2-yl)ethyl)-2-(3-(trifluoromethyl)-4,5,6,7-tetrahydro-1H-indazol-1-yl)acetamide], the inhibition at 2 µM with HIV-IIIb was 69%. In the data set “in vitro” (setting [1]), this compound returned a CC50 at 5 days of 10300 nM.
Taken in the same sequence, the figures for `COc1ccc(-c2cccnc2C(Cc2cc(F)cc(F)c2)NC(=O)Cc2c[nH]c3ccc(O)cc23)c(C)c1` (stereo not drawn) [Example 5, N-(2-(3,5-difluorophenyl)-1-(3-(4-methoxy-2-methylphenyl)pyridin-2-yl)ethyl)-2-(5-hydroxy-1H-indol-3-yl)acetamide] were 76% and 32700 nM.
`COc1ccc(-c2cccnc2C(Cc2cc(F)cc(F)c2)NC(=O)Cn2nc(C(F)(F)F)c3c2CCCC3)c(C)c1` (stereo not drawn) [Example 6, N-(2-(3,5-difluorophenyl)-1-(3-(4-methoxy-2-methylphenyl)pyridin-2-yl)ethyl)-2-(3-(trifluoromethyl)-4,5,6,7-tetrahydro-1H-indazol-1-yl)acetamide]: the inhibition at 2 µM in the data set with HIV-IIIb is 45%. In addition, in the data set “in vitro” (setting [1]), the CC50 at 5 days turned out to be 11400 nM.
Taken in the same sequence, the figures for `COc1cc(C)c(-c2cccnc2C(Cc2cc(F)cc(F)c2)NC(=O)Cc2c[nH]c3ccc(O)cc23)c(C)c1` (stereo not drawn) [Example 7, N-(2-(3,5-difluorophenyl)-1-(3-(4-methoxy-2,6-dimethylphenyl)pyridin-2-yl)ethyl)-2-(5-hydroxy-1H-indol-3-yl)acetamide] were 18% and 17600 nM.
Turning to `COc1cc(C)c(-c2cccnc2C(Cc2cc(F)cc(F)c2)NC(=O)Cn2nc(C(F)(F)F)c3c2CCCC3)c(C)c1` (stereo not drawn) [Example 8, N-(2-(3,5-difluorophenyl)-1-(3-(4-methoxy-2,6-dimethylphenyl)pyridin-2-yl)ethyl)-2-(3-(trifluoromethyl)-4,5,6,7-tetrahydro-1H-indazol-1-yl)acetamide], the inhibition at 2 µM in the data set with HIV-IIIb stood at 20%. Moreover, it took 15700 nM to reach half-maximal cytotoxicity in the data set “in vitro” (setting [1]) (CC50 at 5 days).
In the same order, the values of `Cc1ccccc1-c1ccnc(C(Cc2ccccc2)NC(=O)Cc2c[nH]c3ccc(O)cc23)n1` (stereo not drawn) [Example 9E, 2-(5-hydroxy-1H-indol-3-yl)-N-(2-phenyl-1-(4-o-tolylpyrimidin-2-yl)ethyl)acetamide] are 0% and 35900 nM.
Taken in the same sequence, the figures for `Cc1ccccc1-c1ccnc(C(Cc2ccccc2)NC(=O)Cn2nc(C(F)(F)F)c3c2CCCC3)n1` (stereo not drawn) [Example 10, N-(2-phenyl-1-(4-o-tolylpyrimidin-2-yl)ethyl)-2-(3-(trifluoromethyl)-4,5,6,7-tetrahydro-1H-indazol-1-yl)acetamide] were 0% and 13000 nM.
In the same order, the values of `Cc1ccccc1-c1ccnc(C(Cc2cc(F)cc(F)c2)NC(=O)Cc2c[nH]c3ccc(O)cc23)n1` (stereo not drawn) [Example 11, N-(2-(3,5-difluorophenyl)-1-(4-o-tolylpyrimidin-2-yl)ethyl)-2-(5-hydroxy-1H-indol-3-yl)acetamide] are 0% and 35700 nM.
Consider `Cc1ccccc1-c1ccnc(C(Cc2cc(F)cc(F)c2)NC(=O)Cn2nc(C(F)(F)F)c3c2CCCC3)n1` (stereo not drawn) [Example 12, N-(2-(3,5-difluorophenyl)-1-(4-o-tolylpyrimidin-2-yl)ethyl)-2-(3-(trifluoromethyl)-4,5,6,7-tetrahydro-1H-indazol-1-yl)acetamide], for which, in the data set on HIV-IIIb, the inhibition at 2 µM came out at 0%. In “in vitro” (setting [1]), this compound had a CC50 at 5 days of 8980 nM.
On to `NC(=O)c1cc(-c2cccnc2[C@H](Cc2cc(F)cc(F)c2)NC(=O)Cn2nc(C(F)F)c(C3CC3)c2C(F)F)ccc1F` [Example 562, (S)-5-(2-(1-(2-(4-cyclopropyl-3,5-bis(difluoromethyl)-1H-pyrazol-1-yl)acetamido)-2-(3,5-difluorophenyl)ethyl)pyridin-3-yl)-2-fluorobenzamide], for which the inhibition at 2 µM in the data set on HIV-IIIb was found to be 42%.
On the same count and under the same terms, as for `NC(=O)c1cc(-c2cccnc2[C@H](Cc2cc(F)cc(F)c2)NC(=O)Cn2nc(C(F)(F)F)c3c2CCCC3)ccc1F` [Example 589, (S)-5-(2-(2-(3,5-difluorophenyl)-1-(2-(3-(trifluoromethyl)-4,5,6,7-tetrahydro-1H-indazol-1-yl)acetamido)ethyl)pyridin-3-yl)-2-fluorobenzamide], the figure is 106%.
